Where “and” joins values, the source holds several entries; their conditions need not be identical. Identical values can stand only once.
Biological target: T1, recombinant human Wip1 (1–420) (Homo sapiens, UniProt O15297)
T1 sequence (O15297 1-420): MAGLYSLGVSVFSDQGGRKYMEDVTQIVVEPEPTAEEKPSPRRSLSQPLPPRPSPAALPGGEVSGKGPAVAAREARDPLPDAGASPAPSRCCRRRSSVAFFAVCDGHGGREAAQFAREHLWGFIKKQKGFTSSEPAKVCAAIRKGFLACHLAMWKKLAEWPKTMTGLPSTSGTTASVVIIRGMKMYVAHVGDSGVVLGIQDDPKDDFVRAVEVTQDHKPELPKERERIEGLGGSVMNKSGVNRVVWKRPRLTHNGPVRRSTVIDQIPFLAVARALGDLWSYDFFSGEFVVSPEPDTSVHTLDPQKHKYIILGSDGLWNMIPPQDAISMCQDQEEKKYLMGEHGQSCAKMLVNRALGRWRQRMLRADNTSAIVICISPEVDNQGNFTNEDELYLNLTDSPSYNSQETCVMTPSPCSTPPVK
Assay: Wip1 phosphatase activity inhibition assay
Format: biochemical

[1] = variable slope logistic fit of Wip1 inhibition curve
[2] = fixed-slope logistic curve, which assumes the Hill coefficient = 1 (footnote a)

With O=C(Nc1cccc(OP(=O)(O)O)c1)c1ccc(NCc2ccc(F)cc2)c(Cc2ccccc2)c1 [Compound 29a, 3-(3-benzyl-4-((4-fluorobenzyl)amino)benzamido)phenyl dihydrogen phosphate] the “fold loss in activity (Wip1 IC50)” value (compared with 22g) was 3 fold and the “Hill coefficient [n]” value [1] was 1.7 ± 0.1.
With O=C(Nc1cccc(OP(=O)(O)O)c1)c1ccc(NCc2ccc(-c3cccc(F)c3)cc2)c(CC2CCCCC2)c1 [Compound 22l, 3-(3-(cyclohexylmethyl)-4-(((3’-fluoro-[1,1’-biphenyl]-4-yl)methyl)amino)benzamido)phenyl dihydrogen phosphate] the “Hill coefficient [n]” value [1] was 1.7 ± 0.4.
For O=C(Nc1ccc2c(c1)OCO2)c1cccc(CNc2ccc(C(=O)Nc3cccc(OP(=O)(O)O)c3)cc2CC2CCCCC2)c1 [Compound 40e, 3-(4-((3-(benzo[d][1,3]dioxol-5-ylcarbamoyl)benzyl)amino)-3-(cyclohexylmethyl)benzamido)phenyl dihydrogen phosphate], the “Hill coefficient [n]” value [1] was 2.9 ± 0.1.
With O=C(Nc1cccc(Cl)c1)c1ccc(CNc2ccc(C(=O)Nc3cccc(OP(=O)(O)O)c3)cc2CC2CCCCC2)cc1 [Compound 40a, 3-(4-((4-((3-chlorophenyl)carbamoyl)benzyl)amino)-3-(cyclohexylmethyl)benzamido)phenyl dihydrogen phosphate] the “Hill coefficient [n]” value [1] was 1.9 ± 0.2.
With O=C(Nc1cccc(OP(=O)(O)O)c1)c1ccc(NCc2cccnc2)c(CC2CCCCC2)c1 [Compound 22n, 3-(3-(cyclohexylmethyl)-4-((pyridin-3-ylmethyl)amino)benzamido)phenyl dihydrogen phosphate] the “fold less active (Wip1 IC50)” value (compared with 22m) was 5 fold and the “Hill coefficient [n]” value [1] was 1.6 ± 0.2.
For Nc1ccccc1CC1CCCCC1 [Compound 10, 2-(cyclohexylmethyl)aniline], the “Wip1 inhibitory activity (in words)” value was “did not have significant inhibitory activity”.
COc1cc(OC)cc(-c2ccc(CNc3ccc(C(=O)Nc4cccc(OP(=O)(O)O)c4)cc3CC3CCCCC3)cc2)c1 [Compound 22j, 3-(3-(cyclohexylmethyl)-4-(((3’,5’-dimethoxy-[1,1’-biphenyl]-4-yl)methyl)amino)benzamido)phenyl dihydrogen phosphate] was tested, and the “Hill coefficient [n]” value [1] was 1.8 ± 0.1.
CCCCC(CCCC)CNc1ccc(C(=O)Nc2cccc(OP(=O)(O)O)c2)cc1CC1CCCCC1 [Compound 22b, 3-(4-((2-butylhexyl)amino)-3-(cyclohexylmethyl)benzamido)phenyl dihydrogen phosphate] was tested, and the “Hill coefficient [n]” value [2] was 1^a.
For O=C(Nc1cccc(Cl)c1)c1cccc(CNc2ccc(C(=O)Nc3cccc(OP(=O)(O)O)c3)cc2C2CC3CCC2C3)c1 (stereo not drawn) [Compound 40d, 3-(3-(bicyclo[2.2.1]heptan-2-yl)-4-((3-((3-chlorophenyl)carbamoyl)benzyl)amino)benzamido)phenyl dihydrogen phosphate], the “Hill coefficient [n]” value [1] was 2.3 ± 0.4.
For O=C(Nc1cccc(OP(=O)(O)O)c1)c1ccc(NCCCc2ccccc2)c(CC2CCCCC2)c1 [Compound 22c, 3-(3-(cyclohexylmethyl)-4-((3-phenylpropyl)amino)benzamido)phenyl dihydrogen phosphate], the IC50 was 165 µM and the “Hill coefficient [n]” value [2] was 1^a.
In the case of O=C(Nc1cccc(F)c1)c1cccc(CNc2ccc(C(=O)Nc3cccc(OP(=O)(O)O)c3)cc2CC2CCCCC2)c1 [Compound 40f, 3-(3-(cyclohexylmethyl)-4-((3-((3-fluorophenyl)carbamoyl)benzyl)amino)benzamido)phenyl dihydrogen phosphate], the “Hill coefficient [n]” value [1] is reported as 3.6 ± 0.2.
In the case of Nc1ccccc1CCC1CCCCC1 [Compound 12, 2-(2-cyclohexylethyl)aniline], the “Wip1 inhibitory activity (in words)” value is reported as “did not have significant inhibitory activity”.
In the case of O=C(Nc1cccc(OP(=O)(O)O)c1)c1ccc(NCc2ccc(-c3cccc(Cl)c3)cc2)c(CC2CCCCC2)c1 [Compound 22k, 3-(4-(((3’-chloro-[1,1’-biphenyl]-4-yl)methyl)amino)-3-(cyclohexylmethyl)benzamido)phenyl dihydrogen phosphate], the “Hill coefficient [n]” value [1] is reported as 1.3 ± 0.2.
With COC(=O)c1ccc(NCc2cccc(C(=O)O)c2)c(CC2CCCCC2)c1 [Compound 15, 3-(((2-(cyclohexylmethyl)-4-(methoxycarbonyl)phenyl)amino)methyl)benzoic acid] the “Hill coefficient [n]” value [1] was 2.8 ± 0.5.
For O=C(Nc1cccc(Cl)c1)c1cccc(CNc2ccc(C(=O)Nc3cccc(OP(=O)(O)O)c3)cc2CCC2CCCCC2)c1 [Compound 40c, 3-(4-((3-((3-chlorophenyl)carbamoyl)benzyl)amino)-3-(2-cyclohexylethyl)benzamido)phenyl dihydrogen phosphate], the “Hill coefficient [n]” value [1] was 1.0 ± 0.1.
For O=C(Nc1cccc(Cl)c1)c1cccc(CNc2ccc(C(=O)Nc3cccc(O)c3)cc2CCC2CCCCC2)c1 [Compound 38c, 4-((3-((3-chlorophenyl)carbamoyl)benzyl)amino)-3-(2-cyclohexylethyl)-N-(3-hydroxyphenyl)benzamide], the “Wip1 inhibitory activity (in words)” value was “considerable drop in activity” and the “Hill coefficient [n]” value [2] was 1^a.
For O=C(Nc1ccc(OP(=O)(O)O)cc1)c1ccc(NCc2ccc(F)cc2)c(CC2CCCCC2)c1 [Compound 32a, 4-(3-(cyclohexylmethyl)-4-((4-fluorobenzyl)amino)benzamido)phenyl dihydrogen phosphate], the “Wip1 inhibitory activity (in words)” value was “comparable inhibitory activity with the parent compound 22g” and the “Hill coefficient [n]” value [1] was 3.4 ± 0.4.
In the case of Nc1ccc(C(=O)Nc2cccc(OP(=O)(O)O)c2)cc1CC1CCCCC1 [Compound 22a, 3-(4-amino-3-(cyclohexylmethyl)benzamido)phenyl dihydrogen phosphate], the “Hill coefficient [n]” value [1] is reported as 1.2 ± 0.10.
For COc1cccc(CNc2ccc(C(=O)Nc3cccc(OP(=O)(O)O)c3)cc2CC2CCCCC2)c1 [Compound 22e, 3-(3-(cyclohexylmethyl)-4-((3-methoxybenzyl)amino)benzamido)phenyl dihydrogen phosphate], the “Hill coefficient [n]” value [1] was 1.3 ± 0.3.
In the case of COc1ccc(CNc2ccc(C(=O)Nc3cccc(OP(=O)(O)O)c3)cc2CC2CCCCC2)cc1 [Compound 22d, 3-(3-(cyclohexylmethyl)-4-((4-methoxybenzyl)amino)benzamido)phenyl dihydrogen phosphate], the “Hill coefficient [n]” value [1] is reported as 2.0 ± 0.2.
O=C(Nc1cccc(OP(=O)(O)O)c1)c1ccc(NCc2ccc3ccccc3c2)c(CC2CCCCC2)c1 [Compound 22h, 3-(3-(cyclohexylmethyl)-4-((naphthalen-2-ylmethyl)amino)benzamido)phenyl dihydrogen phosphate] was tested, and the “Wip1 inhibitory activity (in words)” value was “weak activity” and the “Hill coefficient [n]” value [2] was 1^a.
O=C(Nc1cccc(OP(=O)(O)O)c1)c1ccc(NCc2ccc(F)cc2)c(CC2CCCCC2)c1 [Compound 22g, 3-(3-(cyclohexylmethyl)-4-((4-fluorobenzyl)amino)benzamido)phenyl dihydrogen phosphate] was tested, and the “Hill coefficient [n]” value [1] was 3 and 3.0 ± 0.4.
For COC(=O)c1ccc(NCc2cccc(C(=O)O)c2)c(CCC2CCCCC2)c1 [Compound 17, 3-(((2-(2-cyclohexylethyl)-4-(methoxycarbonyl)phenyl)amino)methyl)benzoic acid], the “Hill coefficient [n]” value [1] was 4.4 ± 0.4.
In the case of O=C(Nc1cccc(OP(=O)(O)O)c1)c1ccc(NCc2ccc(F)cc2)cc1 [Compound 29b, 3-(4-((4-fluorobenzyl)amino)benzamido)phenyl dihydrogen phosphate], the “Wip1 inhibitory activity (in words)” value is reported as “almost complete loss of inhibitory activity” and the “Hill coefficient [n]” value [2] is reported as 1^a.
In the case of O=C(Nc1cccc(OP(=O)(O)O)c1)c1ccc(NCc2cc3ccccc3o2)c(CC2CCCCC2)c1 [Compound 22m, 3-(4-((benzofuran-2-ylmethyl)amino)-3-(cyclohexylmethyl)benzamido)phenyl dihydrogen phosphate], the “Hill coefficient [n]” value [1] is reported as 1.5 ± 0.1.
In the case of O=C(O)c1cccc(CNc2ccccc2CCC2CCCCC2)c1 [Compound 16, 3-(((2-(2-cyclohexylethyl)phenyl)amino)methyl)benzoic acid], the “Wip1 inhibitory activity (in words)” value is reported as “modest inhibition”.
For O=C(Nc1cccc(OP(=O)(O)O)c1)c1ccc(NCc2cccc(F)c2)c(CC2CCCCC2)c1 [Compound 22f, 3-(3-(cyclohexylmethyl)-4-((3-fluorobenzyl)amino)benzamido)phenyl dihydrogen phosphate], the “Hill coefficient [n]” value [1] was 3.4 ± 0.4.
With O=C(O)c1cccc(CNc2ccccc2CC2CCCCC2)c1 [Compound 14, 3-(((2-(cyclohexylmethyl)phenyl)amino)methyl)benzoic acid] the “Wip1 inhibitory activity (in words)” value was “modest inhibition” and the “Hill coefficient [n]” value [1] was 1.9 ± 0.4.

From article PMC9664485 (European journal of medicinal chemistry, 2022)
